Reference: PubChem BioAssay AID1919003 (Molecular Pharmacology Branch, DTP, NCI, 2023)

System: 786-0 complex spheroids with HUVEC/MSC, growth % test/control
Test: Anticancer human tumor 786-0 cell line growth inhibition [AhR];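 note: compound exposure lasted seven days before the read-out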
Conditions: for IC50: curve of first compound; for viability, T/C: stronger effect = lower value
In short: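 Spheroids combined tumor cells with HUVEC endothelial cells and human MSCs as stroma. AhR antagonists were paired with standard or investigational drugs, each dosed in half-log steps down from near clinical Cmax, or from 10 microM where Cmax was unknown.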

[1] = second compound 0.1 µM, first compound 0.00949 µM
[2] = second compound 0.1 µM, first compound 0.03 µM
[3] = second compound 0.1 µM, first compound 0.0949 µM
[4] = second compound 0.1 µM, first compound 0.3 µM
[5] = second compound 0.316 µM, first compound 0.00949 µM
[6] = second compound 0.316 µM, first compound 0.03 µM
[7] = second compound 0.316 µM, first compound 0.0949 µM
[8] = second compound 0.316 µM, first compound 0.3 µM
[9] = second compound 1 µM, first compound 0.00949 µM
[10] = second compound 1 µM, first compound 0.03 µM
[11] = second compound 1 µM, first compound 0.0949 µM
[12] = second compound 1 µM, first compound 0.3 µM
[13] = second compound 3.16 µM, first compound 0.00949 µM
[14] = second compound 3.16 µM, first compound 0.03 µM
[15] = second compound 3.16 µM, first compound 0.0949 µM
[16] = second compound 3.16 µM, first compound 0.3 µM
[17] = second compound 10 µM, first compound 0.00949 µM
[18] = second compound 10 µM, first compound 0.03 µM
[19] = second compound 10 µM, first compound 0.0949 µM
[20] = second compound 10 µM, first compound 0.3 µM

SMILES	IC50 (second compound 0.1 µM) [nM]	IC50 (second compound 0.316 µM) [nM]	IC50 (second compound 1 µM) [nM]	IC50 (second compound 3.16 µM) [nM]	IC50 (second compound 10 µM) [nM]	viability, T/C [1] [%]	viability, T/C [2] [%]	viability, T/C [3] [%]	viability, T/C [4] [%]	viability, T/C [5] [%]	viability, T/C [6] [%]	viability, T/C [7] [%]	viability, T/C [8] [%]	viability, T/C [9] [%]	viability, T/C [10] [%]	viability, T/C [11] [%]	viability, T/C [12] [%]	viability, T/C [13] [%]	viability, T/C [14] [%]	viability, T/C [15] [%]	also measured
Nc1ncn(C2CC(O)C(CO)S2)c(=O)n1 (stereo not given) + CC(CO)NC(=O)c1cc(-c2ccc(Cl)cc2)nn(-c2cnn(C)c2)c1=O	> 300	> 300	> 300	> 300	> 300	99.8	102	92.3	67.2	109	107	94.8	64.7	111	102	97.9	63.1	115	108	92.6	viability, T/C (second compound 0.1 µM, first compound 0.000949 µM): 102%; viability, T/C (second compound 0.1 µM, first compound 0.003 µM): 97.3%; viability, T/C (second compound 0.316 µM, first compound 0.000949 µM): 101%; viability, T/C (second compound 0.316 µM, first compound 0.003 µM): 109%; viability, T/C (second compound 1 µM, first compound 0.000949 µM): 104%; viability, T/C (second compound 1 µM, first compound 0.003 µM): 115%; viability, T/C (second compound 3.16 µM, first compound 0.000949 µM): 122%; viability, T/C (second compound 3.16 µM, first compound 0.003 µM): 108%; viability, T/C [16]: 66.4%; viability, T/C (second compound 10 µM, first compound 0.000949 µM): 118%; viability, T/C (second compound 10 µM, first compound 0.003 µM): 116%; viability, T/C [17]: 117%; viability, T/C [18]: 123%; viability, T/C [19]: 119%; viability, T/C [20]: 68.1%
O=C(C=Cn1cnc(-c2cc(C(F)(F)F)cc(C(F)(F)F)c2)n1)NNc1cnccn1 + CC(CO)NC(=O)c1cc(-c2ccc(Cl)cc2)nn(-c2cnn(C)c2)c1=O	278	251	242	246	278	108	110	107	45.5	111	113	112	38.7	105	115	113	36	110	116	106	viability, T/C (second compound 0.1 µM, first compound 0.949 µM): 25.7%; viability, T/C (second compound 0.1 µM, first compound 3 µM): 10.5%; viability, T/C (second compound 0.316 µM, first compound 0.949 µM): 28.2%; viability, T/C (second compound 0.316 µM, first compound 3 µM): 11%; viability, T/C (second compound 1 µM, first compound 0.949 µM): 24.5%; viability, T/C (second compound 1 µM, first compound 3 µM): 9.93%; viability, T/C [16]: 37.9%; viability, T/C (second compound 3.16 µM, first compound 0.949 µM): 22.9%; viability, T/C (second compound 3.16 µM, first compound 3 µM): 9.29%; viability, T/C [17]: 119%; viability, T/C [18]: 122%; viability, T/C [19]: 107%; viability, T/C [20]: 44.8%; viability, T/C (second compound 10 µM, first compound 0.949 µM): 23.6%; viability, T/C (second compound 10 µM, first compound 3 µM): 10.6%
